Test system: mouse embryos
Test: Storage of mouse embryos in Solution 70/30 at 4 °C with or without sodium butyrate pretreatment
Type: cell-based
Method: Mouse embryos were incubated with either sodium butyrate or a Class II solute at either room temperature, 30 °C or 4 °C prior to storage in Solution 70/30 for up to five days at 4 °C. […] Sodium butyrate replaced sodium chloride at the same concentration in PBS.

## CCCC(=O)[O-].[Na+] [sodium butyrate]
Pretreatment with higher concentrations of sodium butyrate, 5 days of storage in Solution 70/30
  embryos hatched: up to 70%
Pretreatment with sodium butyrate, three days of storage in Solution 70/30 at 4 °C
  embryos to hatch: up to 80%
